Two compounds from ChEMBL document CHEMBL3526031, “Mechanistic studies on the absorption and disposition of scutellarin in humans: selective OATP2B1-mediated hepatic uptake is a likely key determinant for its unique pharmacokinetic characteristics” (Drug Metab Dispos, 2012) can be followed below.

The target in series [1] is Liver microsome. Nature of the series: Drug metabolism in rat liver microsomes assessed as formation of scutellarein-6,7-diglucuronide after 7 mins by HPLC/UV analysis. In kind it is ADME. Particulars: for Km / Vmax: rat, microsomes, 7 min; call rule not given here. Background: Liver microsomes are a subcellular fraction often used to study metabolism.
Series [2] addresses T1, Solute carrier organic anion transporter family member 2B1 (Homo sapiens, UniProt O94956).
T1 sequence (O94956 whole entry): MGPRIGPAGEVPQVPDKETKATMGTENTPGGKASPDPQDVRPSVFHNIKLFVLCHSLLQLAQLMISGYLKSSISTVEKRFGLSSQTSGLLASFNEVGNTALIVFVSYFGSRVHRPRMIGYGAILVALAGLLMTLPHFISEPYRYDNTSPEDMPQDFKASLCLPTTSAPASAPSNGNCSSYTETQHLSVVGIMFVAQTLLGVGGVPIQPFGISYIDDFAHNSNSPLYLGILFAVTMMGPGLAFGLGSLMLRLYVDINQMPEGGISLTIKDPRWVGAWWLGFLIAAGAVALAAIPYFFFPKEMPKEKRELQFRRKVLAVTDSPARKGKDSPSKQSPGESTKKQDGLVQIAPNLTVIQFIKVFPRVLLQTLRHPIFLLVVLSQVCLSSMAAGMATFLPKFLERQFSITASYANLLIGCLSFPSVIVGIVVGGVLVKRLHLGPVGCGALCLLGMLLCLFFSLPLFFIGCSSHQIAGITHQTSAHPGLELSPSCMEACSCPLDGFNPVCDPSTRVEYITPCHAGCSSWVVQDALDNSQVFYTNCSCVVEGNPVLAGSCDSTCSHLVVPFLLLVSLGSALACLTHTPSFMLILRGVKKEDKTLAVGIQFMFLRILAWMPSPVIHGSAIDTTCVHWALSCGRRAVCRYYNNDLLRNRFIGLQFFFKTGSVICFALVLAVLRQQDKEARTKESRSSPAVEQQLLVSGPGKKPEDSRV
The series is described as follows: Ratio of Vmax to Km for drug uptake assessed as OATP2B1 (unknown origin)-mediated drug transport expressed in HEK293 cells by LC-MS/MS analysis. The class given is ADME, cell-based.

Series [3] can be described thus: Cmax in human at 60 mg, po. In kind it is ADME, organism-based. Details: dose 60 mg, route oral. Conditions: in vivo.
Series [4] addresses ATP-binding cassette sub-family C member 3 (Homo sapiens, UniProt O15438). The series is described as follows: Inhibition of human MRP3-mediated estradiol-17beta-D-glucuronide formation using inside-out membrane vesicles by LC-MS/MS analysis.
For series [5], the target named is Multidrug resistance-associated protein 1 (Homo sapiens, UniProt P33527). Nature of the series: Inhibition of human MRP1-mediated estradiol-17beta-D-glucuronide formation using inside-out membrane vesicles by LC-MS/MS analysis.
For series [6], the target named is T2, UDP-glucuronosyltransferase 1A1 (Homo sapiens, UniProt P22309).
T2 sequence (P22309 whole entry): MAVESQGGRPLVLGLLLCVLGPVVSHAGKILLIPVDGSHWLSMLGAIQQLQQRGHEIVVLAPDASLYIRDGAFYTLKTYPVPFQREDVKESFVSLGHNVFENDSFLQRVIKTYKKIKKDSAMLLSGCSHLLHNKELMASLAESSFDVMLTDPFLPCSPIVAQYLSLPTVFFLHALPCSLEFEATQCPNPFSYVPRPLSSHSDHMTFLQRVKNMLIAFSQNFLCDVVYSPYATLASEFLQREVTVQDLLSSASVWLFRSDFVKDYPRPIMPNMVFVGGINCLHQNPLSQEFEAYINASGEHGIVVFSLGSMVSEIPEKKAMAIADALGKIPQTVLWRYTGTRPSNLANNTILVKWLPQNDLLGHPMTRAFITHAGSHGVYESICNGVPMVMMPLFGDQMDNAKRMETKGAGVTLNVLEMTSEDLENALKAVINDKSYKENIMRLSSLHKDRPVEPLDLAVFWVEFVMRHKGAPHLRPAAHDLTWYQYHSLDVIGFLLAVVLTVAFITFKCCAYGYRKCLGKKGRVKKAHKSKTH
The series is described as follows: Drug metabolism assessed as human recombinant UGT1A1-mediated formation of scutellarein-6,7-diglucuronide after 25 mins by HPLC/UV analysis. The class given is ADME.

Series [7] relates to Homo sapiens. Nature of the series: Drug metabolism in human assessed as retention time of parent compound at 40 mg, po up to 20 hrs by mass defect filter chromatogram analysis. The class given is ADME, organism-based. Conditions: in vivo.
Series [8] concerns the target T3, OATP2B1 (Homo sapiens, UniProt O94956).
T3 sequence (O94956 whole entry): T1 sequence (O94956 whole entry)
The series is described as follows: (§1) Drug uptake assessed as OATP2B1 (unknown origin)-mediated drug transport expressed in HEK293 cells after 7 mins by LC-MS/MS analysis. In kind it is ADME, cell-based. Conditions: human, HEK293 cells expressing OATP2B1.

Series [9] addresses T1, Solute carrier organic anion transporter family member 2B1. The series is described as §1. In kind it is ADME, cell-based.
For series [10], the target named is T4, UDP-glucuronosyltransferase 1A8 (Homo sapiens, UniProt Q9HAW9).
T4 sequence (Q9HAW9 whole entry): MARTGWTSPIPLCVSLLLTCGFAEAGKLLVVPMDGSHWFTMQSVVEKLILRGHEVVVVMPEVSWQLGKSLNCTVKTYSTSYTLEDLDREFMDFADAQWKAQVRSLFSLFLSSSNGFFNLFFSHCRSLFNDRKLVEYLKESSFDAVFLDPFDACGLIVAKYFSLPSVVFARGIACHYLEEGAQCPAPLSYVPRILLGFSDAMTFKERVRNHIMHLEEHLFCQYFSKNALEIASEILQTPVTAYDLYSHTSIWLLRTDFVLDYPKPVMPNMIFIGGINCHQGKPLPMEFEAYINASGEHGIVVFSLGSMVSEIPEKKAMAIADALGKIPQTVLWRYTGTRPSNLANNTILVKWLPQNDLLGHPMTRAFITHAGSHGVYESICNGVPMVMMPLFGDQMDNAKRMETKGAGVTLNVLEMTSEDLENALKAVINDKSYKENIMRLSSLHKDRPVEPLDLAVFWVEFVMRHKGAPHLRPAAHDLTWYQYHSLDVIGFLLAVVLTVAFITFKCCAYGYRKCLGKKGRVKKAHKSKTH
Nature of the series: Ratio of Vmax to Km for drug metabolism assessed as human recombinant UGT1A8-mediated formation of scutellarein-6,7-diglucuronide after 25 mins by HPLC/UV analysis. The class given is ADME. Particulars: recombinant enzyme.

Series [11] deals with Homo sapiens. The series is described as follows: Drug level in human assessed as retention time treated with 40 mg, po of scutellarin measured up to 20 hrs by mass defect filter chromatogram analysis. In kind it is ADME, organism-based.
The target in series [12] is T1, Solute carrier organic anion transporter family member 2B1. The series is described as follows: Drug uptake assessed as OATP2B1 (unknown origin)-mediated drug transport expressed in HEK293 cells by LC-MS/MS analysis. The class given is ADME, cell-based.
The target of series [13] is T4, UDP-glucuronosyltransferase 1A8. Nature of the series: Drug metabolism assessed as human recombinant UGT1A8-mediated formation of scutellarein-6,7-diglucuronide after 25 mins by HPLC/UV analysis. In kind it is ADME. Conditions: recombinant enzyme.

Sequence of ATP-binding cassette sub-family C member 3 (O15438 whole entry): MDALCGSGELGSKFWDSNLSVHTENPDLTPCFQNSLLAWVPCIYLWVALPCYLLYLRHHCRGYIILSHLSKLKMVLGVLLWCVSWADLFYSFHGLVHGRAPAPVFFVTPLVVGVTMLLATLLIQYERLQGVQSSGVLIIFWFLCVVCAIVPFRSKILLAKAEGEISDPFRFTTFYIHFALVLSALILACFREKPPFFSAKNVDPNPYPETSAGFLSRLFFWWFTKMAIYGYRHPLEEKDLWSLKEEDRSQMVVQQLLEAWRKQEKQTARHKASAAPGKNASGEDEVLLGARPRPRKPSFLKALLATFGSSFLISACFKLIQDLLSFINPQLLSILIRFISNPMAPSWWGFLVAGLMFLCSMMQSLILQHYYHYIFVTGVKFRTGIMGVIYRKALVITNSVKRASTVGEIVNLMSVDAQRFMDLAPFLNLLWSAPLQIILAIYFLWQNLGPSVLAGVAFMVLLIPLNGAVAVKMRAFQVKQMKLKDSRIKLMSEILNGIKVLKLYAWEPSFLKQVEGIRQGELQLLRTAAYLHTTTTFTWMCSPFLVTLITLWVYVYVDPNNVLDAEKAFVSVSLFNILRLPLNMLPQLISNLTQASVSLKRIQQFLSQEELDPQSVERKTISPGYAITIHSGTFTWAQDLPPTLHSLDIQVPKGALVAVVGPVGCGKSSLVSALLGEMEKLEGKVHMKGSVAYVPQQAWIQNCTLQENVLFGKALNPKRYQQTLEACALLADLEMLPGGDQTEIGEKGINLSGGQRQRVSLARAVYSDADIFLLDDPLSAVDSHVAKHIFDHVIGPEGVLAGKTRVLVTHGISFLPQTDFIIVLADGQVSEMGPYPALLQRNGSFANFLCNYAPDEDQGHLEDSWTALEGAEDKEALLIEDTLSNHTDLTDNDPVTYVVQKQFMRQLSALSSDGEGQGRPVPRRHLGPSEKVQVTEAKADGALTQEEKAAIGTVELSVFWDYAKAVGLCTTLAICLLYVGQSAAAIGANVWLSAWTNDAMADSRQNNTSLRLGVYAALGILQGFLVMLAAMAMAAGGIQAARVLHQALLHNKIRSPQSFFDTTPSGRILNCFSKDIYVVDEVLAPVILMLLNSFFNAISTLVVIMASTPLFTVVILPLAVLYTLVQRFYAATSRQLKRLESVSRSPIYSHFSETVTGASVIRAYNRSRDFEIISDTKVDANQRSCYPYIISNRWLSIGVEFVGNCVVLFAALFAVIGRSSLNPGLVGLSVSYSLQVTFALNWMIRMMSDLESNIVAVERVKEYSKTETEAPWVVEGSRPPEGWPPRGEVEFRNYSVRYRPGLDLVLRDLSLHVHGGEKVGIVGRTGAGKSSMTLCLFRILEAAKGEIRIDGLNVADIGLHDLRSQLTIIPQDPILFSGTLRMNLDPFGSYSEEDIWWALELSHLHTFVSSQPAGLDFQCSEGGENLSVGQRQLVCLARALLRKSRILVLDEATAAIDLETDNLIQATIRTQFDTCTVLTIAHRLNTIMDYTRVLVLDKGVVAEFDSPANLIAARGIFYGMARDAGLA
Sequence of Multidrug resistance-associated protein 1 (P33527 whole entry): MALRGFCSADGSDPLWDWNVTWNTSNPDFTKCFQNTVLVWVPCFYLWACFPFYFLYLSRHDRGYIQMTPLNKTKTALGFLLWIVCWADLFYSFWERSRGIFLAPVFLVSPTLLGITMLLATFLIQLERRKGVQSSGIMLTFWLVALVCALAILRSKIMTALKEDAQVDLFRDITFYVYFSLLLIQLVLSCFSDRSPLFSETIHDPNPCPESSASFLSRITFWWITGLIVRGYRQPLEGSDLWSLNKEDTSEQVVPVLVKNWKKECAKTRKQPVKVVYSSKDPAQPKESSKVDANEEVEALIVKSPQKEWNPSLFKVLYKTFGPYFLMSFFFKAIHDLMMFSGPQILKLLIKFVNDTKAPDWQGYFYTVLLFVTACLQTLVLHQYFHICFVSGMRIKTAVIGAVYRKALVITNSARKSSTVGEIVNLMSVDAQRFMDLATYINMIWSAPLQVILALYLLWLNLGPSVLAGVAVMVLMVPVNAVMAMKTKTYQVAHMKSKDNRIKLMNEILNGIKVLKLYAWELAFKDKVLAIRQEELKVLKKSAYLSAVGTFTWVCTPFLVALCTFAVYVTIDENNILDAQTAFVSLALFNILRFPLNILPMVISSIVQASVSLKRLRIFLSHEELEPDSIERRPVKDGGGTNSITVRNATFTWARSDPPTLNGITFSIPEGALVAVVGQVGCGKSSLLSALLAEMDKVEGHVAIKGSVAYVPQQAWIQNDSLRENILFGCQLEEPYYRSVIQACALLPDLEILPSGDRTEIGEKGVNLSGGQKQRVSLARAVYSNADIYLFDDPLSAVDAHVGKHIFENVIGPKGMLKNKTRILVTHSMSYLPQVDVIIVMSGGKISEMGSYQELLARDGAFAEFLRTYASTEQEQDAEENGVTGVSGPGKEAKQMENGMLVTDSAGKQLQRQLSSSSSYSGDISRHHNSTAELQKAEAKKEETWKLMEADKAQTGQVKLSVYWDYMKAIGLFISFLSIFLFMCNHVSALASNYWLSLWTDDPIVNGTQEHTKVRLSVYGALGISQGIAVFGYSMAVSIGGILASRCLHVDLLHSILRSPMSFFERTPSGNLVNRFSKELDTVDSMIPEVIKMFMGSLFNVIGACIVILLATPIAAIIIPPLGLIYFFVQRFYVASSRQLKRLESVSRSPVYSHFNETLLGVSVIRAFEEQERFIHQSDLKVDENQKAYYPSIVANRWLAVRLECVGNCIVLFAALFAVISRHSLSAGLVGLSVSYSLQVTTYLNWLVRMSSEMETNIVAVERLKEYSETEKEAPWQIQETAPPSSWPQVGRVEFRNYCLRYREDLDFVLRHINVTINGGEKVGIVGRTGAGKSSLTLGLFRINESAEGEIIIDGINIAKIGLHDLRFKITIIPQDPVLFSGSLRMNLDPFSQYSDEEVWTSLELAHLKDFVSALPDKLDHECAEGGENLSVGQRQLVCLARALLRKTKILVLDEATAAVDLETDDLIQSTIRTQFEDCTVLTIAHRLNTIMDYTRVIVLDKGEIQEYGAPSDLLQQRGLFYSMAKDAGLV

For `O=C(O)[C@H]1O[C@@H](Oc2cc3oc(-c4ccc(O)cc4)cc(=O)c3c(O)c2O)[C@H](O)[C@@H](O)[C@@H]1O` [SCUTELLARIN], the Ki in series [1] is 302 µM; in [6] it was 96.6 µM; in series [9], 25.9 µM. Besides, the Km in [1] turned out to be 15.2 µM. Besides, the Vmax in [1] is on record as 3.1 nmol/min/mg; in series [9] (human, hek293, 7 min) it was 113 pmol/min/mg. In [2], the Vmax/Km is 11.1 µL/min/mg. In addition, the Cmax in series [3] is under 4 nM. In addition, the “inhibition (INH)” value in series [4] is “Not Active”; in [5] it was “Active”. Besides, the Retention_time in [7] turned out to be 7.93 min. The Km at 7 min in [8] came to 43 µM.
Take `O=C(O)[C@H]1O[C@@H](Oc2c(O)cc3oc(-c4ccc(O)cc4)cc(=O)c3c2O)[C@H](O)[C@@H](O)[C@@H]1O`: the Ki amounted to 78.3 µM in series [1] and 25.9 µM in [12]. In addition, the Km in series [1] is 21.2 µM. The results for the Vmax in [1] and in series [13] were 1.94 nmol/min/mg and 0.465 nmol/min/mg, respectively. Also, the Vmax/Km in [10] is 7.96 µL/min/mg. Further, in [11], the Retention_time came out at 9.19 min. The “inhibition (INH)” value in [4] and in series [5] was “Active” in each case.

Usually Ki stands for the dissociation constant of the complex between target and ligand, obtained from inhibition or displacement. As a reminder, the Km is the concentration of substrate that gives half-maximal velocity. Broadly, the Vmax is the top rate of the reaction or transport when substrate is in excess. As a reminder, the Cmax is the peak of the concentration-time curve.
